Measured values reported in patent US8796231B2, “Pest control composition” (Sumitomo Chemical Company, Limited, priority 2010, dated 2014).

Legend:
Panonychus citri = assay: Test Example 2: Satsuma mandarin orange leaf piece immersion test, insecticidal rate on female imagoes; assay type: in vivo; conditions: mandarin orange leaf piece immersed 60 seconds, after 6 days, 3 replicates
Method: (§1) A suspension concentrate containing 10.0% by weight of etoxazole [product name: Baroque (registered trademark) flowable, manufactured by Kyoyu Agri Co., Ltd.] was diluted with water containing 0.02% by volume of a spreading agent [product name: Sindain (registered trademark), manufactured by Sumitomo Chemical Co., Ltd.] so that the concentration of etoxazole became 1.56 ppm.
(§2) A suspension concentrate containing 11.7% by weight of spinetoram (weight ratio of spinetoram J:spinetoram L=75:25) was diluted with water containing 0.02% by volume of a spreading agent [product name: Sindain (registered trademark), manufactured by Sumitomo Chemical Co., Ltd.] so that the concentration of spinetoram became 6.25 ppm.
(§3) The water dilution of spinetoram was mixed with an equal amount of the water dilution of etoxazole to prepare a test solution.
The water dilution of etoxazole and the water dilution of spinetoram were respectively diluted with an equal amount of water containing 0.02% by volume of the same spreading agent as mentioned above to prepare a 0.78 ppm water dilution of etoxazole and a 3.13 ppm water dilution of spinetoram.
Leaves were taken from a cultivated Satsuma mandarin orange tree, and cut into 2-cm-square pieces. One of the pieces was immersed in the test solution for 60 seconds. […]
An insecticidal rate was calculated in the same manner as Test Example 1. […]

Spodoptera litura = assay: Test Example 1: cabbage leaf immersion test, insecticidal rate on third-instar larvae; assay type: in vivo; conditions: cabbage leaf immersed 60 seconds, after 4 days, 3 replicates
Method: as §1, with “25” for “1.56”
as §2, with “7.31” for “6.25”
as §3
The water dilution of etoxazole and the water dilution of spinetoram were respectively diluted with an equal amount of water containing 0.02% by volume of the same spreading agent as mentioned above to prepare a 12.5 ppm water dilution of etoxazole and a 3.66 ppm water dilution of spinetoram.
A cabbage was planted in a pot (volume: 860 ml) and grown until the fourth leaf stage. The leaves of the cabbage were cut off one by one. […]
An insect death rate was calculated according to the following equation. […]

Row | Compound | Insecticidal rate (Panonychus citri; 0.78 ppm active ingredient) [%] | Insecticidal rate (Spodoptera litura; 12.5 ppm active ingredient) [%] | Insecticidal rate (Panonychus citri; 3.13 ppm active ingredient) [%] | Insecticidal rate (Spodoptera litura; 3.66 ppm active ingredient) [%]
1 | CCOc1cc(C(C)(C)C)ccc1C1COC(c2c(F)cccc2F)=N1 (stereo not shown) [Etoxazole, 2-(2,6-difluorophenyl)-4-[4-(1,1-dimethylethyl)-2-ethoxyphenyl]-4,5-dihydrooxazole] | 7.7 | 26.7 |  | 
2 | spinetoram |  |  | 23.1 | 43.3
